Measurements reported in article PMC12090182, “Repurposing of the RIPK1-Selective Benzo[1,4]oxazepin-4-one Scaffold for the Development of a Type III LIMK1/2 Inhibitor” (ACS Chemical Biology, 2025).

Experiments:
Assay in all cases: scanMAX KINOMEscan (Eurofins)
Format in all cases: binding
CAMK1D = CAMK1D (Homo sapiens, UniProt Q8IU85); conditions: read-out: Percent Control
Excerpt: (§1) Supplement cb5c00097_si_002.xlsx, sheet "Table S6 (Eurofins Selectivity)" | column: Percent Control

NIK = NIK (Homo sapiens, UniProt Q99558); conditions: compound concentration 100 nM; Entrez MAP3K14; read-out: Percent Control
Excerpt: as §1

STK35 = STK35 (Homo sapiens, UniProt Q8TDR2); conditions: compound concentration 100 nM; Entrez STK35; read-out: Percent Control
Excerpt: as §1

AMPK-alpha1 = AMPK-alpha1 (Homo sapiens, UniProt Q13131); conditions: 1000 nM, read-out: Percent Control
Excerpt: as §1

[1] = molecular target: RPS6KA5(Kin.Dom.1-N-terminal) (Homo sapiens, UniProt O75582); conditions: compound concentration 100 nM; Entrez RPS6KA5; read-out: Percent Control
Excerpt: as §1

HPK1 = HPK1 (Homo sapiens, UniProt Q92918); conditions: read-out: Percent Control
Excerpt: as §1

[2] = molecular target: JAK1(JH2domain-pseudokinase) (Homo sapiens, UniProt P23458); conditions: 1000 nM, read-out: Percent Control
Excerpt: as §1

MAK = MAK (Homo sapiens, UniProt P20794); conditions: compound concentration 100 nM; Entrez MAK; read-out: Percent Control
Excerpt: as §1

SNRK = SNRK (Homo sapiens, UniProt Q9NRH2); conditions: compound concentration 100 nM; Entrez SNRK; read-out: Percent Control
Excerpt: as §1

LZK = LZK (Homo sapiens, UniProt O43283); conditions: 1000 nM, read-out: Percent Control
Excerpt: as §1

STK33 = STK33 (Homo sapiens, UniProt Q9BYT3); conditions: compound concentration 100 nM; Entrez STK33; read-out: Percent Control
Excerpt: as §1

TSSK3 = TSSK3 (Homo sapiens, UniProt Q96PN8); conditions: compound concentration 100 nM; Entrez TSSK3; read-out: Percent Control
Excerpt: as §1

BUB1 = BUB1 (Homo sapiens, UniProt O43683); conditions: 1000 nM, read-out: Percent Control
Excerpt: as §1

[3] = molecular target: JAK1(JH1domain-catalytic) (Homo sapiens, UniProt P23458); conditions: 1000 nM, read-out: Percent Control
Excerpt: as §1

PRKD2 = PRKD2 (Homo sapiens, UniProt Q9BZL6); conditions: 1000 nM, read-out: Percent Control
Excerpt: as §1

FGFR1 = FGFR1 (Homo sapiens, UniProt P11362); conditions: read-out: Percent Control
Excerpt: as §1

RIPK2 = RIPK2 (Homo sapiens, UniProt O43353); conditions: 1000 nM, read-out: Percent Control
Excerpt: as §1

MAP3K2 = MAP3K2 (Homo sapiens, UniProt Q9Y2U5); conditions: compound concentration 100 nM; Entrez MAP3K2; read-out: Percent Control
Excerpt: as §1

ABL1-nonphosphorylated = ABL1-nonphosphorylated (Homo sapiens, UniProt P00519); conditions: read-out: Percent Control
Excerpt: as §1

RIPK5 = RIPK5 (Homo sapiens, UniProt Q6XUX3); conditions: compound concentration 100 nM; Entrez DSTYK; read-out: Percent Control
Excerpt: as §1

MELK = MELK (Homo sapiens, UniProt Q14680); conditions: compound concentration 100 nM; Entrez MELK; read-out: Percent Control
Excerpt: as §1

CDK4-cyclinD3 = CDK4-cyclinD3 (Homo sapiens, UniProt P11802); conditions: 1000 nM, read-out: Percent Control
Excerpt: as §1

PIK3CG = PIK3CG (Homo sapiens, UniProt P48736); conditions: 1000 nM, read-out: Percent Control
Excerpt: as §1

EPHA4 = EPHA4 (Homo sapiens, UniProt P54764); conditions: read-out: Percent Control
Excerpt: as §1

CDKL2 = CDKL2 (Homo sapiens, UniProt Q92772); conditions: read-out: Percent Control
Excerpt: as §1

FLT3 = FLT3 (Homo sapiens, UniProt P36888); conditions: read-out: Percent Control
Excerpt: as §1

TNNI3K = TNNI3K (Homo sapiens, UniProt Q59H18); conditions: 1000 nM, read-out: Percent Control
Excerpt: as §1

ZAP70 = ZAP70 (Homo sapiens, UniProt P43403); conditions: compound concentration 100 nM; Entrez ZAP70; read-out: Percent Control
Excerpt: as §1

TAOK1 = TAOK1 (Homo sapiens, UniProt Q7L7X3); conditions: compound concentration 100 nM; Entrez TAOK1; read-out: Percent Control
Excerpt: as §1

AKT1 = AKT1 (Homo sapiens, UniProt P31749); conditions: 1000 nM, read-out: Percent Control
Excerpt: as §1

EGFR = EGFR (Homo sapiens, UniProt P00533); conditions: read-out: Percent Control
Excerpt: as §1

GAK = GAK (Homo sapiens, UniProt O14976); conditions: read-out: Percent Control
Excerpt: as §1

PLK1 = PLK1 (Homo sapiens, UniProt P53350); conditions: 1000 nM, read-out: Percent Control
Excerpt: as §1

NEK5 = NEK5 (Homo sapiens, UniProt Q6P3R8); conditions: 1000 nM, read-out: Percent Control
Excerpt: as §1

EPHA4, sequence (P54764 20-986): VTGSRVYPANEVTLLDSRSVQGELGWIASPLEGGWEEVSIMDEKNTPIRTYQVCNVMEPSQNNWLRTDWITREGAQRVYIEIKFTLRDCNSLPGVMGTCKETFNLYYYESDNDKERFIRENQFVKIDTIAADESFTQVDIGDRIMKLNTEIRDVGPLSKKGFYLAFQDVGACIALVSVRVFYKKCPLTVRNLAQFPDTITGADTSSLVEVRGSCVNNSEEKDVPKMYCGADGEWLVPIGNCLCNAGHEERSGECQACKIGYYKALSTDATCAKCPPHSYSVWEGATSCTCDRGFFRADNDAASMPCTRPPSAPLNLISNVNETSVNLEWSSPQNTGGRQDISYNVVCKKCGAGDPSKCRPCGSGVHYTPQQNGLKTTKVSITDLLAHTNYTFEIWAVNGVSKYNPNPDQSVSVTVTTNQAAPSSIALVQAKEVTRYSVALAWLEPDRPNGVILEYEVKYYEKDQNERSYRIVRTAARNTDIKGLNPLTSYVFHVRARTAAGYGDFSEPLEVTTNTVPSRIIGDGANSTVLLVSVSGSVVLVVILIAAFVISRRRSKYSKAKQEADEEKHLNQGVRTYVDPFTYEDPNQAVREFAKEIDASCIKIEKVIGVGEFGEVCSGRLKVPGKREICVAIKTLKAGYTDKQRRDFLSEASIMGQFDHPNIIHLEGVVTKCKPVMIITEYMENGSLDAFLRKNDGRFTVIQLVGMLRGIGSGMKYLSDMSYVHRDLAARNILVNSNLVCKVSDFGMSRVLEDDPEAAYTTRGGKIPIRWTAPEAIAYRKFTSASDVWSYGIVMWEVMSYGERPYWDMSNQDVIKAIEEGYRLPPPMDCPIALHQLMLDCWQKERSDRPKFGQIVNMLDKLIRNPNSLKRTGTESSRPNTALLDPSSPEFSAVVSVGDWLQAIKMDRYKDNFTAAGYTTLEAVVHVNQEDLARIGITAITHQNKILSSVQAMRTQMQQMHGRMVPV
GAK, sequence (O14976 whole entry): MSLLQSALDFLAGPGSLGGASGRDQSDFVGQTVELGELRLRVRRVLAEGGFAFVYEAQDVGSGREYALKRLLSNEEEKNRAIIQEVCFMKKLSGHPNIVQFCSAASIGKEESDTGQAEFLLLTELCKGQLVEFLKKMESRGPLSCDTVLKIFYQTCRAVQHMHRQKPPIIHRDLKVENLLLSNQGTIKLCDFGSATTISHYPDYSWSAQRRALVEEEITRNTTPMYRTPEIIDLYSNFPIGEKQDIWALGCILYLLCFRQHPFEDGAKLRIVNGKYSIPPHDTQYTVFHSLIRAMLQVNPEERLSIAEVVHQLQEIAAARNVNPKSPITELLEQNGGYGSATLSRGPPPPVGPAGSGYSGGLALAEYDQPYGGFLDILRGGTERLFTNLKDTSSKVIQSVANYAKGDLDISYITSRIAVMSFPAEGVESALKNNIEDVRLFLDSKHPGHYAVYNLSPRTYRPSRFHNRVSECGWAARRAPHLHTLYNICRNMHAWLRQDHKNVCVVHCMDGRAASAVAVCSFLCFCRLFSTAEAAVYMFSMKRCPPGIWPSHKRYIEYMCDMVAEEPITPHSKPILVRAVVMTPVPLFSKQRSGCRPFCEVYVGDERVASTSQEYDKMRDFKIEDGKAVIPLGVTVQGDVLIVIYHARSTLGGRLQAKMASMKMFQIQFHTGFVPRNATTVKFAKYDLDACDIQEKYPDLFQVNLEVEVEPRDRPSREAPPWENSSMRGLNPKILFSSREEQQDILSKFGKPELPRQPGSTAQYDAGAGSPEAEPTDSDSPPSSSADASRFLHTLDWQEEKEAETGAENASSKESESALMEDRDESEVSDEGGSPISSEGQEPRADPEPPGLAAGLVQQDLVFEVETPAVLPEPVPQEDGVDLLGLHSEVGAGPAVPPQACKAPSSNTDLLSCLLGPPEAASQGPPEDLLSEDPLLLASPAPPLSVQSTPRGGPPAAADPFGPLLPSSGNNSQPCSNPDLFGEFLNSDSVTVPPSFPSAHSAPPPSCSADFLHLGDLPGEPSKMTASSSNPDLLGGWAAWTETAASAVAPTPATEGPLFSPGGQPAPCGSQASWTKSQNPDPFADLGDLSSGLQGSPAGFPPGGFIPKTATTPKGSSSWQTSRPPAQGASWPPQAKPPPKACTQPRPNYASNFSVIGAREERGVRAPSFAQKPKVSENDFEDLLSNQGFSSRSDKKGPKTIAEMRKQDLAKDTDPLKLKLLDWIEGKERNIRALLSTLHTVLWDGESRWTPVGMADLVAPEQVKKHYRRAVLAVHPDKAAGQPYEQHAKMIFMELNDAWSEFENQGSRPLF
EGFR, sequence (P00533 25-1210): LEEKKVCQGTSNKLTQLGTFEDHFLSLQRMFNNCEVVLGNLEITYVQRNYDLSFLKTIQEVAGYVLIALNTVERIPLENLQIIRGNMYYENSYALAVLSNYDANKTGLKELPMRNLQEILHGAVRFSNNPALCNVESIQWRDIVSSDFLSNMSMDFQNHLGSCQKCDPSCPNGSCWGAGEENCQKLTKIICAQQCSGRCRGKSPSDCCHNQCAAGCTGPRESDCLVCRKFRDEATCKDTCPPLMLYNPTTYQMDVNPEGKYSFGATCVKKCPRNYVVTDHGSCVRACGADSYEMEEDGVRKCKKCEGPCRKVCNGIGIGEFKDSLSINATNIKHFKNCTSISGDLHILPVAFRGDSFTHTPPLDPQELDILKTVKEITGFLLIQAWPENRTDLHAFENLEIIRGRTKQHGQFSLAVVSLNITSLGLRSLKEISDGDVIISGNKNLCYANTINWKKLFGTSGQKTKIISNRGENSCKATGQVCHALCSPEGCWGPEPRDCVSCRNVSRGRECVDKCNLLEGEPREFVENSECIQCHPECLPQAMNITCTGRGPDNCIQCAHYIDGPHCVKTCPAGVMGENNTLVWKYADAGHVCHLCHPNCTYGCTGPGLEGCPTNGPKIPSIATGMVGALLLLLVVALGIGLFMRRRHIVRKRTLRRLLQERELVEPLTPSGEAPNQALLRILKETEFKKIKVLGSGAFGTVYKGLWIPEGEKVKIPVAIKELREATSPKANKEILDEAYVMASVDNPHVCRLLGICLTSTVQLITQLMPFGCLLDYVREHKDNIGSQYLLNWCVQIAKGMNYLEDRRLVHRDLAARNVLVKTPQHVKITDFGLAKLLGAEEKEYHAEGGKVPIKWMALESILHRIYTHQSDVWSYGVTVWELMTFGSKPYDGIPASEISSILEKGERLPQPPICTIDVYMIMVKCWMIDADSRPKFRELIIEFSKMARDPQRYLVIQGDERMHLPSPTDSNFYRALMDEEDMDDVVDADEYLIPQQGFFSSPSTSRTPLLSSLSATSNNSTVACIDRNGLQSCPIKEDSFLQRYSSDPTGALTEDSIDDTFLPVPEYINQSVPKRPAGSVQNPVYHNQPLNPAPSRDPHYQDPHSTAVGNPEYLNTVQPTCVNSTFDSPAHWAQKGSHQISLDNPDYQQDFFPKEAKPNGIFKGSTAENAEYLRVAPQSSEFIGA
FLT3, sequence (P36888 27-993): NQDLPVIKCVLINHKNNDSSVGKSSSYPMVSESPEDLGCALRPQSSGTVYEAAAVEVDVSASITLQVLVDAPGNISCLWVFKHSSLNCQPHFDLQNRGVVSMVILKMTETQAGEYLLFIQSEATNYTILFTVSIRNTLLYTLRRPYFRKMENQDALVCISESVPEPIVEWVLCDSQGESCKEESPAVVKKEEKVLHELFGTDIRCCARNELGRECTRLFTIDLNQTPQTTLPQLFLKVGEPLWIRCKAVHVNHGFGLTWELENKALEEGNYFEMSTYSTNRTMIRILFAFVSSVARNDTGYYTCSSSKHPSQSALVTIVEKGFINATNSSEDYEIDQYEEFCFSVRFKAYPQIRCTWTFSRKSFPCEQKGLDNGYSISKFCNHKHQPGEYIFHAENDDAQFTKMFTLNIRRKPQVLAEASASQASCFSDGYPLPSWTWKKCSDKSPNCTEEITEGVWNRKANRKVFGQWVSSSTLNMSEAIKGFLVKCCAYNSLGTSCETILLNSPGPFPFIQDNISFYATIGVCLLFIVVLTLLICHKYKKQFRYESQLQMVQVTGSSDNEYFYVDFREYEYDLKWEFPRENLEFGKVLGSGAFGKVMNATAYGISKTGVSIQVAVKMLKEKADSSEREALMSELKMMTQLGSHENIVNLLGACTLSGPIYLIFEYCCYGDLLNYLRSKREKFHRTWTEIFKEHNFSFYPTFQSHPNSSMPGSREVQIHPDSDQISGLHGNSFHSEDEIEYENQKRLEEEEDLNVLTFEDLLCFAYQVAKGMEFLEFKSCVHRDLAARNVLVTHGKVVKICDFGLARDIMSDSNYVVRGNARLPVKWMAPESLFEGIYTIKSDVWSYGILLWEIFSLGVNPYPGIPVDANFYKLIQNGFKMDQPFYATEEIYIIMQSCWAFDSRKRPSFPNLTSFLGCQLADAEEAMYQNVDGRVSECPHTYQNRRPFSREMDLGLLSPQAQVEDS
CDKL2, sequence (Q92772 whole entry): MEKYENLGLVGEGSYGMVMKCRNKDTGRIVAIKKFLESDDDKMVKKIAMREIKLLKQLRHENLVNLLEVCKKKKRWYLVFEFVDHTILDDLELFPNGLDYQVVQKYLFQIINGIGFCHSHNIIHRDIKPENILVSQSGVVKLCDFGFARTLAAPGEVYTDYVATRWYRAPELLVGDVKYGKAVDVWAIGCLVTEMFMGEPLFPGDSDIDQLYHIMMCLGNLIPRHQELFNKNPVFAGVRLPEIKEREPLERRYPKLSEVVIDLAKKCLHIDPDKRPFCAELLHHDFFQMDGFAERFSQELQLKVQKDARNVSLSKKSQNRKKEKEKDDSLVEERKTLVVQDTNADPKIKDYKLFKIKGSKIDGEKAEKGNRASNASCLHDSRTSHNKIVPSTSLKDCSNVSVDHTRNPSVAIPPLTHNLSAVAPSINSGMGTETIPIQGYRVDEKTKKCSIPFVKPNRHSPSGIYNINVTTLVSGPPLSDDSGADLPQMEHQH

CN1C(=O)[C@@H](N2CCc3c(nn(Cc4ccccc4)c3C(N)=O)C2=O)COc2cc(Cl)ccc21 [Compound 10, (S)-2-benzyl-6-(8-chloro-5-methyl-4-oxo-2,3,4,5-tetrahydrobenzo[b][1,4]oxazepin-3-yl)-7-oxo-4,5,6,7-tetrahydro-2H-pyrazolo[3,4-c]pyridine-3-carboxamide]
remaining binding at 1 µM (CAMK1D; 1000 nM): 100% | remaining binding at 0.1 µM (CAMK1D; compound concentration 100 nM, Entrez CAMK1D): 92% | remaining binding at 0.1 µM (NIK): 80% | remaining binding at 0.1 µM (STK35): 87% | remaining binding at 1 µM (AMPK-alpha1): 87% | remaining binding at 0.1 µM [1]: 92% | remaining binding at 1 µM (HPK1; 1000 nM): 100% | remaining binding at 0.1 µM (HPK1; compound concentration 100 nM, Entrez MAP4K1): 99% | remaining binding at 1 µM [2]: 94% | remaining binding at 0.1 µM (MAK): 94% | remaining binding at 0.1 µM (SNRK): 99% | remaining binding at 1 µM (LZK): 67% | remaining binding at 0.1 µM (STK33): 80% | remaining binding at 0.1 µM (TSSK3): 100% | remaining binding at 1 µM (BUB1): 78% | remaining binding at 1 µM [3]: 89% | remaining binding at 1 µM (PRKD2): 96% | remaining binding at 1 µM (FGFR1; 1000 nM): 100% | remaining binding at 0.1 µM (FGFR1; compound concentration 100 nM, Entrez FGFR1): 88% | remaining binding at 1 µM (RIPK2): 80% | remaining binding at 0.1 µM (MAP3K2): 100% | remaining binding at 1 µM (ABL1-nonphosphorylated; 1000 nM): 100% | remaining binding at 0.1 µM (ABL1-nonphosphorylated; compound concentration 100 nM, Entrez ABL1): 100% | remaining binding at 0.1 µM (RIPK5): 91% | remaining binding at 0.1 µM (MELK): 93% | remaining binding at 1 µM (CDK4-cyclinD3): 95% | remaining binding at 1 µM (PIK3CG): 90% | remaining binding at 1 µM (EPHA4; 1000 nM): 100% | remaining binding at 0.1 µM (EPHA4; compound concentration 100 nM, Entrez EPHA4): 99% | remaining binding at 1 µM (CDKL2; 1000 nM): 100% | remaining binding at 0.1 µM (CDKL2; compound concentration 100 nM, Entrez CDKL2): 100% | remaining binding at 1 µM (FLT3; 1000 nM): 100% | remaining binding at 0.1 µM (FLT3; compound concentration 100 nM, Entrez FLT3): 96% | remaining binding at 1 µM (TNNI3K): 80% | remaining binding at 0.1 µM (ZAP70): 84% | remaining binding at 0.1 µM (TAOK1): 100% | remaining binding at 1 µM (AKT1): 91% | remaining binding at 1 µM (EGFR; 1000 nM): 100% | remaining binding at 0.1 µM (EGFR; compound concentration 100 nM, Entrez EGFR): 96% | remaining binding at 1 µM (GAK; 1000 nM): 100% | remaining binding at 0.1 µM (GAK; compound concentration 100 nM, Entrez GAK): 87% | remaining binding at 1 µM (PLK1): 73% | remaining binding at 1 µM (NEK5): 96%
